Laboratory results from BindingDB's records for doi:10.1016/j.ejmech.2019.05.051 (Zhejiang Academy of Medical Sciences, 2019).

Test: Inhibition of rat brain cortex AChE using acetylthiocholine iodide as substrate incubated for 15 mins by spectrophotometry

| Structure (SMILES) | IC50 |
| --- | --- |
| CC(c1cc(OC(=O)N(C)C)c2ncccc2c1)N1CCOCC1 (stereo not given) | 69.9 µM |
| CCN(C)C(=O)Oc1cc(C(C)N2CCN(C)CC2)cc2cccnc12 (stereo not given) | 54.7 µM |
| CCN(C)C(=O)Oc1cc(C(C)N(CC)CC)cc2cccnc12 (stereo not given) | 41.2 µM |
| CCN(C)C(=O)Oc1cc(C(C)N(C)CC)cc2cccnc12 (stereo not given) | 40.7 µM |
| CC(c1cc(OC(=O)N2CCOCC2)c2ncccc2c1)N1CCOCC1 (stereo not given) | 8.3 µM |
| CC(c1cc(OC(=O)N2CCCC2)c2ncccc2c1)N(C)C (stereo not given) | 28.6 µM |
| CC(c1cc(OC(=O)N(C)C)c2ncccc2c1)N(C)C (stereo not given) | 16.3 µM |
| CCN(CC)C(=O)Oc1cc(C(C)N(C)C)cc2cccnc12 (stereo not given) | 13.6 µM |
| CC(c1cc(OC(=O)N2CCOCC2)c2ncccc2c1)N(C)C (stereo not given) | 8.8 µM |
| CC(c1cc(OC(=O)N2CCCCC2)c2ncccc2c1)N(C)C (stereo not given) | 20.6 µM |
| CC(c1cc(OC(=O)N2CCCC2)c2ncccc2c1)N1CCOCC1 (stereo not given) | 48.6 µM |
| CCN(C)C(=O)Oc1cc(C(C)N2CCCC2)cc2cccnc12 (stereo not given) | 18.1 µM |
| CCN(C)C(=O)Oc1cccc([C@H](C)N(C)C)c1 [2,3-dihydroxybutanedioic acid; 3-[(1S)-1-(dimethylamino)ethyl]phenyl N-ethyl-N-methylcarbamate] | 9 µM |
| CCN(C)C(=O)Oc1cc(C(C)N2CCCCC2)cc2cccnc12 (stereo not given) | 29 µM |
| CCN(C)C(=O)Oc1cc(C(C)N(C)C)cc2cccnc12 (stereo not given) | 1.2 µM |
